Laboratory results from the NIST ThermoML archive (doi:10.1016/j.fluid.2007.07.016).

Experiment: xn = mol fraction of the nth substance listed
Conditions: 101 kPa, Liquid; for viscosity: Capillary tube (Ostwald / Ubbelohde) method; for speed of sound: Linear variable-path acoustic interferometer

Cc1ccccc1C [1,2-dimethylbenzene] + C1CCOC1
Conditions | speed of sound, 288.15 K [m/s] | speed of sound, 298.15 K [m/s] | speed of sound, 308.15 K [m/s] | speed of sound, 318.15 K [m/s] | viscosity, 288.15 K [mPa·s] | viscosity, 298.15 K [mPa·s] | viscosity, 308.15 K [mPa·s] | viscosity, 318.15 K [mPa·s]
x2 = 0 | 1388.5 | 1350.3 | 1321.4 | 1285.8 | 0.8623 | 0.7576 | 0.669 | 0.5972
x2 = 0.0764 | 1384.3 | 1345.1 | 1314.5 | 1277.9 | 0.8385 | 0.738 | 0.6535 | 0.585
x2 = 0.1504 | 1380 | 1340 | 1307.8 | 1270.2 | 0.8155 | 0.7192 | 0.6384 | 0.573
x2 = 0.2243 | 1375.7 | 1335 | 1301.1 | 1262.7 | 0.7919 | 0.6998 | 0.6226 | 0.5602
x2 = 0.2942 | 1371.4 | 1330 | 1294.8 | 1255.6 | 0.769 | 0.6807 | 0.6067 | 0.5471
x2 = 0.366 | 1366.9 | 1324.9 | 1288.3 | 1248.4 | 0.7451 | 0.6606 | 0.59 | 0.5331
x2 = 0.4226 | 1363.4 | 1320.9 | 1283.2 | 1242.8 | 0.726 | 0.6445 | 0.5764 | 0.5216
x2 = 0.4801 | 1359.7 | 1316.7 | 1278 | 1237.1 | 0.7063 | 0.6277 | 0.5621 | 0.5094
x2 = 0.531 | 1356.3 | 1313 | 1273.4 | 1232.1 | 0.6888 | 0.6127 | 0.5493 | 0.4981
x2 = 0.585 | 1352.6 | 1309 | 1268.5 | 1226.8 | 0.6694 | 0.5959 | 0.5348 | 0.4856
x2 = 0.6578 | 1347.6 | 1303.6 | 1262 | 1219.7 | 0.6432 | 0.5731 | 0.515 | 0.4684
x2 = 0.7322 | 1342.5 | 1298 | 1255.4 | 1212.5 | 0.6159 | 0.5493 | 0.4941 | 0.4498
x2 = 0.8049 | 1337.4 | 1292.5 | 1248.9 | 1205.6 | 0.5887 | 0.5253 | 0.4729 | 0.431
x2 = 0.8708 | 1332.6 | 1287.5 | 1243 | 1199.3 | 0.5635 | 0.503 | 0.453 | 0.413
x2 = 0.9392 | 1327.7 | 1282.3 | 1236.9 | 1192.9 | 0.537 | 0.4794 | 0.4319 | 0.394

Cc1cc(C)cc(C)c1 [1,3,5-trimethylbenzene] + C1CCOC1
Conditions | speed of sound, 288.15 K [m/s] | speed of sound, 298.15 K [m/s] | speed of sound, 308.15 K [m/s] | speed of sound, 318.15 K [m/s] | viscosity, 288.15 K [mPa·s] | viscosity, 298.15 K [mPa·s] | viscosity, 308.15 K [mPa·s] | viscosity, 318.15 K [mPa·s]
x2 = 0 | 1412.3 | 1369.8 | 1325.2 | 1279 | 0.7592 | 0.6572 | 0.5792 | 0.5066
x2 = 0.0735 | 1406.8 | 1363.6 | 1318.5 | 1272.2 | 0.7428 | 0.6449 | 0.5698 | 0.5004
x2 = 0.1513 | 1400.3 | 1356.6 | 1311.2 | 1264.9 | 0.7259 | 0.6321 | 0.5602 | 0.4943
x2 = 0.2274 | 1393.5 | 1349.5 | 1303.9 | 1257.7 | 0.7089 | 0.6192 | 0.5502 | 0.4875
x2 = 0.2986 | 1386.7 | 1342.4 | 1296.7 | 1250.6 | 0.6927 | 0.6066 | 0.5402 | 0.4805
x2 = 0.3672 | 1379.7 | 1335.3 | 1289.6 | 1243.6 | 0.6767 | 0.594 | 0.5301 | 0.4732
x2 = 0.4305 | 1373.5 | 1328.9 | 1283.1 | 1237.3 | 0.6616 | 0.5821 | 0.5203 | 0.4658
x2 = 0.4912 | 1367.5 | 1322.9 | 1277 | 1231.5 | 0.647 | 0.5703 | 0.5106 | 0.4583
x2 = 0.5496 | 1361.9 | 1317.3 | 1271.4 | 1226 | 0.6326 | 0.5586 | 0.5008 | 0.4507
x2 = 0.6055 | 1356.8 | 1312 | 1266.1 | 1220.8 | 0.6186 | 0.5472 | 0.4911 | 0.4429
x2 = 0.6784 | 1350.4 | 1305.4 | 1259.4 | 1214.4 | 0.6 | 0.5318 | 0.4779 | 0.4322
x2 = 0.7516 | 1344 | 1298.8 | 1252.8 | 1207.9 | 0.5809 | 0.5159 | 0.4642 | 0.4208
x2 = 0.828 | 1337.4 | 1292.1 | 1246 | 1201.2 | 0.5609 | 0.499 | 0.4494 | 0.4084
x2 = 0.879 | 1333.2 | 1287.7 | 1241.6 | 1196.9 | 0.5469 | 0.4872 | 0.4388 | 0.3992
x2 = 0.9412 | 1328.2 | 1282.6 | 1236.4 | 1191.8 | 0.5299 | 0.4726 | 0.4258 | 0.3879
